Reference: ChEMBL document CHEMBL1124351, “Syntheses and bioevaluation of substituted dihydropyridines for pregnancy-interceptive activity in hamsters” (1989)

Columns and labels:
[1] = target: T1, Progesterone receptor (Oryctolagus cuniculus) (UniProt P06186); assay: Percent inhibition of [3H]- progesterone binding to rabbit uterine progesterone receptor, at 10e-5 M compound concentration; conditions: at 10 µM
T1 sequence (whole entry): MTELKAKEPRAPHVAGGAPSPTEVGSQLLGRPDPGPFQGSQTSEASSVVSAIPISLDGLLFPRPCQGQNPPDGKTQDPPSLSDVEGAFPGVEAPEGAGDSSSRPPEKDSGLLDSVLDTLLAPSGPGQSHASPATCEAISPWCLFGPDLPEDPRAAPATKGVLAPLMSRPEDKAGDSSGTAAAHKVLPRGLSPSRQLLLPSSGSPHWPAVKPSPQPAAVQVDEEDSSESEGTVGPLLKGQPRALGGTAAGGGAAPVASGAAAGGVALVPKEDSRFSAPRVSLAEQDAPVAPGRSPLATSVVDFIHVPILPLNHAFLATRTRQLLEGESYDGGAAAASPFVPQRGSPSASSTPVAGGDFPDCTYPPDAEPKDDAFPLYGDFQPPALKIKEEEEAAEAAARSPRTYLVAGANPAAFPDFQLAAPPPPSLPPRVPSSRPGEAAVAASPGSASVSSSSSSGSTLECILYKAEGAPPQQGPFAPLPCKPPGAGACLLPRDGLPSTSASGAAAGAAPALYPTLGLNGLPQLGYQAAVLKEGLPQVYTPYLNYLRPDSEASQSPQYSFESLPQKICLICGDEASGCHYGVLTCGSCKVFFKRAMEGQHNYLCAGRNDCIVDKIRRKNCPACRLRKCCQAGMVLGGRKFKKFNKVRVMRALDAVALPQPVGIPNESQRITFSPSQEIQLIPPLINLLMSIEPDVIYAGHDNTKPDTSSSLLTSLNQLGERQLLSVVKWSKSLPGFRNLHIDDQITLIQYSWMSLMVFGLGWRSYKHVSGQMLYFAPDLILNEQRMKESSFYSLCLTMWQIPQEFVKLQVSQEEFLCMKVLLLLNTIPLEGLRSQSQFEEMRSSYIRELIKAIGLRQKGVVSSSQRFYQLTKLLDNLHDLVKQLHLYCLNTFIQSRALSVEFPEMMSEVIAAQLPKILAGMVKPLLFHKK

[2] = target: T1, Progesterone receptor (Oryctolagus cuniculus); assay: Percent inhibition of [3H]- progesterone binding to rabbit uterine progesterone receptor, at 10e-6 M compound concentration; conditions: at 1 µM
[3] = target: T1, Progesterone receptor (Oryctolagus cuniculus); assay: Percent inhibition of [3H]- progesterone binding to rabbit uterine progesterone receptor at 10e-7 M
[4] = target: T1, Progesterone receptor (Oryctolagus cuniculus); assay: Percent inhibition of [3H]- progesterone binding to rabbit uterine progesterone receptor, at 10e-8 M compound concentration; conditions: at 0.01 µM
[5] = target: T1, Progesterone receptor (Oryctolagus cuniculus); assay: Percent inhibition of [3H]- progesterone binding to rabbit uterine progesterone receptor, at 10e-9 M compound concentration; conditions: at 0.001 µM
Cricetinae gen. sp. [6] = assay: Activity against pregnancy-interceptive activity in Syrian golden hamsters, when administered, at a dose of 6.96 mmol/kg; assay type: functional
[7] = system: Progesterone receptor (Mesocricetus auratus); assay: Percent inhibition of [3H]- progesterone binding to Syrian golden hamster uterine cytosol progesterone receptor, at 10e-5 M compound concentration; conditions: at 10 µM
[8] = system: Progesterone receptor (Mesocricetus auratus); assay: Percent inhibition of [3H]- progesterone binding to Syrian golden hamster uterine cytosol progesterone receptor, at 10e-7 M compound concentration; conditions: at 0.1 µM
[9] = system: Progesterone receptor (Mesocricetus auratus); assay: Percent inhibition of [3H]- progesterone binding to Syrian golden hamster uterine cytosol progesterone receptor, at 10e-8 M compound concentration; conditions: at 0.01 µM
[10] = system: Progesterone receptor (Mesocricetus auratus); assay: Percent inhibition of [3H]- progesterone binding to Syrian golden hamster uterine cytosol progesterone receptor, at 10e-9 M compound concentration; conditions: at 0.001 µM
[11] = system: Progesterone receptor (Mesocricetus auratus); assay: Percent inhibition of [3H]- progesterone binding to Syrian golden hamster uterine cytosol progesterone receptor, at 10e-6 M compound concentration; conditions: at 1 µM
[12] = target: T1, Progesterone receptor (Oryctolagus cuniculus); assay: Percent inhibition of [3H]- progesterone binding to rabbit uterine progesterone receptor, at 10e-7 M compound concentration; conditions: at 0.1 µM
Cricetinae gen. sp. [13] = assay: Activity against pregnancy-interceptive activity in Syrian golden hamsters, when administered, at a dose of 6.36 mmol/kg; assay type: functional, Cricetulus griseus
Cricetinae gen. sp. [14] = assay: Activity against pregnancy-interceptive activity in Syrian golden hamsters, when administered, at a dose of 13.15 mmol/kg; assay type: functional
Cricetinae gen. sp. [15] = assay: Activity against pregnancy-interceptive activity in Syrian golden hamsters, when administered, at a dose of 5.54 mmol/kg; assay type: functional
Cricetinae gen. sp. [16] = assay: Activity against pregnancy-interceptive activity in Syrian golden hamsters, when administered, at a dose of 6.66 mmol/kg; assay type: functional
Cricetinae gen. sp. [17] = assay: Activity against pregnancy-interceptive activity in Syrian golden hamsters, when administered, at a dose of 7.83 mmol/kg; assay type: functional
Cricetinae gen. sp. [18] = assay: Activity against pregnancy-interceptive activity in Syrian golden hamsters, when administered, at a dose of 8.35 mmol/kg; assay type: functional, Cricetulus griseus
Cricetinae gen. sp. [19] = assay: Activity against pregnancy-interceptive activity in Syrian golden hamsters, when administered, at a dose of 5.64 mmol/kg; assay type: functional
Cricetinae gen. sp. [20] = assay: Activity against pregnancy-interceptive activity in Syrian golden hamsters, when administered, at a dose of 4.95 mmol/kg; assay type: functional
Cricetinae gen. sp. [21] = assay: Activity against pregnancy-interceptive activity in Syrian golden hamsters, when administered, at a dose of 15.11 mmol/kg; assay type: functional
Cricetinae gen. sp. [22] = assay: Activity against pregnancy-interceptive activity in Syrian golden hamsters, when administered, at a dose of 6.98 mmol/kg; assay type: functional
Cricetinae gen. sp. [23] = assay: Activity against pregnancy-interceptive activity in Syrian golden hamsters, when administered, at a dose of 6.70 mmol/kg; assay type: functional
Cricetinae gen. sp. [24] = assay: Activity against pregnancy-interceptive activity in Syrian golden hamsters, when administered, at a dose of 14.62 mmol/kg; assay type: functional
Cricetinae gen. sp. [25] = assay: Activity against pregnancy-interceptive activity in Syrian golden hamsters, when administered, at a dose of 12.08 mmol/kg; assay type: functional
Cricetinae gen. sp. [26] = assay: Activity against pregnancy-interceptive activity in Syrian golden hamsters, when administered, at a dose of 8.82 mmol/kg; assay type: functional
Cricetinae gen. sp. [27] = assay: Activity against pregnancy-interceptive activity in Syrian golden hamsters, when administered, at a dose of 15.20 mmol/kg; assay type: functional
Cricetinae gen. sp. [28] = assay: Activity against pregnancy-interceptive activity in Syrian golden hamsters, when administered, at a dose of 19.43 mmol/kg; assay type: functional

| inhibition [1] [%] | inhibition [2] [%] | inhibition [4] [%] | inhibition [5] [%] | inhibition [7] [%] | inhibition [8] [%] | inhibition [9] [%] | inhibition [10] [%] | inhibition [11] [%] | inhibition [12] [%] | Structure (SMILES) | further results |
| --- | --- | --- | --- | --- | --- | --- | --- | --- | --- | --- | --- |
| 25 | 15 | 0 | 0 | 40 | 27 | 10 | 10 | 32 |  | COC(=O)C1=C(C)N=C(C)/C(=C(\O)OC)C1c1ccc(C(=O)OC)cc1 (centres undefined) | inhibition [3]: 20%; Activity (Cricetinae gen. sp. [6]): 0.72 |
| 14 | 8 | 10 | 0 | 10 | 10 | 8 | 0 | 9 | 12 | COC(=O)C1=C(C)N=C(C)/C(=C(/O)OC)C1c1cc2ccccc2n2nnnc12 (centres undefined) | Activity (Cricetinae gen. sp. [13]): 2.5 |
| 18 | 10 | 0 | 0 | 24 | 10 | 5 | 2 | 14 | 5 | COC(=O)C1=C(C)N=C(C)/C(=C(/O)OC)C1c1ccc(Cl)c([N+](=O)[O-])c1 (centres undefined) | Activity (Cricetinae gen. sp. [14]): 2.6 |
| 12 | 10 | 10 | 0 | 10 | 4 | 0 | 0 | 6 | 0 | COC(=O)C1=C(C)N=C(C)/C(=C(/O)OC)C1c1ccc(NCc2ccccc2)c([N+](=O)[O-])c1 (centres undefined) | Activity (Cricetinae gen. sp. [15]): 2.5 |
| 14 | 10 | 8 | 5 | 12 | 10 | 4 | 4 | 13 | 10 | CNc1ccc(C2C(C(=O)OC)=C(C)N=C(C)/C2=C(/O)OC)cc1[N+](=O)[O-] (centres undefined) | Activity (Cricetinae gen. sp. [16]): 6.8 |
| 23 | 18 | 11 | 10 | 18 | 15 | 12 | 8 | 15 |  | COC(=O)C1=C(C)N=C(C)/C(=C(\O)OC)C1c1cc(C(=O)c2ccc(C)cc2)c(OC)cc1OC (centres undefined) | inhibition [3]: 15%; Activity (Cricetinae gen. sp. [17]): 6 |
| 20 | 15 | 8 | 5 | 18 | 12 | 5 | 3 | 18 | 15 | COC(=O)C1=C(C)N=C(C)/C(=C(/O)OC)C1c1ccc2nc(-c3ccc(O)c(OC)c3)n(Cc3ccc(O)c(OC)c3)c2c1 (centres undefined) | Activity (Cricetinae gen. sp. [18]): 1.2 |
| 15 | 15 | 0 | 0 | 16 | 8 | 9 | 6 | 10 | 0 | COC(=O)C1=C(C)N=C(C)/C(=C(/O)OC)C1c1ccc2nc3n(c2c1)C(=O)c1ccccc1-3 (centres undefined) | Activity (Cricetinae gen. sp. [19]): 3.8 |
| 16 | 18 | 2 | 2 | 18 | 12 | 9 | 6 | 15 | 10 | COC(=O)C1=C(C)N=C(C)/C(=C(/O)OC)C1c1ccc2nc(-c3ccccc3)c(-c3ccccc3)nc2c1 (centres undefined) | Activity (Cricetinae gen. sp. [20]): 4.6 |
| 21 | 15 | 10 | 13 | 18 | 9 | 0 | 0 | 14 | 16 | COC(=O)C1=C(C)N=C(C)/C(=C(/O)OC)C1c1ccc(N)c(N)c1 (centres undefined) | Activity (Cricetinae gen. sp. [21]): 2.3 |
| 15 | 18 |  |  |  |  |  |  |  |  | COC(=O)C1=C(C)N=C(C)/C(=C(\O)OC)C1c1ccc(NC(C)=O)cc1 (centres undefined) | Activity (Cricetinae gen. sp. [22]): 0.66 |
| 20 | 18 | 10 | 0 | 30 | 18 | 10 | 9 | 26 | 15 | COC(=O)C1=C(C)N=C(C)/C(=C(/O)OC)C1c1ccc2[nH]c(S)nc2c1 (centres undefined) | Activity (Cricetinae gen. sp. [23]): 5 |
| 22 | 20 | 8 | 10 | 26 | 16 | 12 | 9 | 18 | 12 | COC(=O)C1=C(C)N=C(C)/C(=C(/O)OC)C1c1ccc2[nH]nnc2c1 (centres undefined) | Activity (Cricetinae gen. sp. [24]): 5.2 |
| 20 | 16 | 5 | 5 | 28 | 16 | 10 | 0 | 15 | 16 | COC(=O)Nc1nc2cc(C3C(C(=O)OC)=C(C)N=C(C)/C3=C(/O)OC)ccc2[nH]1 (centres undefined) | Activity (Cricetinae gen. sp. [25]): 1.5 |
| 20 | 16 | 6 | 2 | 24 | 15 | 12 | 10 | 20 | 10 | COC(=O)C1=C(C)N=C(C)/C(=C(/O)OC)C1c1ccc2nc(-c3ccc(OC)cc3)n(Cc3ccc(OC)cc3)c2c1 (centres undefined) | Activity (Cricetinae gen. sp. [26]): 6 |
| 15 | 10 | 4 | 3 | 12 | 5 | 9 | 0 | 10 | 8 | COC(=O)C1=C(C)N=C(C)/C(=C(/O)OC)C1c1ccc(C=O)cc1 (centres undefined) | Activity (Cricetinae gen. sp. [27]): 5.15 |
| 17 | 16 | 11 | 8 | 14 | 11 | 10 | 6 | 14 | 10 | COC(=O)C1=C(C)N=C(C)/C(=C(/O)OC)C1c1cc2ccccc2nc1Cl (centres undefined) | Activity (Cricetinae gen. sp. [28]): 3 |
